Values of other authors as cited in US6562842B2, “Protease inhibitors” (SmithKline Beecham Corporation, priority 1995, dated 2003).

Assays:
bone resorption [1] = details: measured by acute changes in serum calcium; rats on calcium deficient diets
bone resorption [2] = details: mouse bone organ culture system
bone resorption [3] = details: mouse calvariae

Molecule | prevention of bone resorption in vivo (bone resorption [1]) | prevention of bone resorption (bone resorption [2]) | inhibition of PFH stimulated bone resorption (bone resorption [3])
CC(C)C[C@H](NC(=O)[C@H]1O[C@@H]1C(=O)O)C(=O)NCCCCN=C(N)N [Example E-64, E-64] | effective at preventing bone resorption in vivo | – | –
C[C@H](NC(=O)[C@H](Cc1ccccc1)NC(=O)OCc1ccccc1)C(=O)C=[N+]=[N-] [Z-Phe-Ala-CHN2] | – | prevent bone resorption | –
CC(=O)N[C@@H](CC(C)C)C(=O)N[C@@H](CC(C)C)C(=O)N[C@H](C=O)CCCNC(=N)N [leupeptin] | effective at preventing bone resorption in vivo | prevent bone resorption | –
cystatin | – | – | inhibits PFH stimulated bone resorption
